Reference: patent US11186585B2 (priority 2018, dated 2021)
Several values for one entry are separate records, joined by “and”; a condition that tells them apart may be missing. Equal entries are not always repeated. Entries after “also recorded” stand apart in the source; their conditions may differ. Marks after values point to notes of the source that are not given here.

Assays:
[1] = system: Sprague-Dawley rats; test: Antinociceptive activity, cold ethanol tail-flick test after oral gavage; assay type: in vivo, rat; conditions: for analgesia in rats, in words: given orally, compared with equivalent dose of Nalbuphine (parent opioid); for Analgesia (rat): oral gavage in sesame oil, 60 uM/kg, one dose, tail-flick at −20° C., cutoff 40 seconds
[2] = system: healthy volunteers; test: Double-blind trial, heat pain threshold (hot water at 50° C.) after oral capsule; assay type: in vivo, human; conditions: for % MPE (analgesia): oral, individual data, 33 45 mg, NB 35 mg, 39 68 mg; for analgesia in humans, in words: given orally, compared with equivalent dose of Nalbuphine (NB) and NB-39
Description: Double-blind, NB hydrochloride and NB-39 controlled, trial of the antinociceptive effect of oral NB-33 in healthy volunteers. […] Each week a healthy volunteer would receive a pill from the assigned set in a random fashion and take it orally. […]
(§1) Following one week of a wash out period, each volunteer repeated the protocol until all pills from the assigned set were administered. The individual data for heat pain threshold as % MPE=[(test latency−baseline latency)/(baseline latency)]×100 and for miosis as % MPE=[(test diameter−baseline diameter)/(baseline diameter)]×100 are shown in Table 2 and Table 3 respectively.
(§2) Independent samples t-test was used to compare the means of % MPE analgesia and miosis in the two pairs of samples: NB-33 and NB and NB-33 and NB-39. All analyses were made using SPSS (v.25). • Bold indicates statistical significance at α=0.05

[3] = system: rats; test: Randall-Selitto test after SC dose; assay type: in vivo, rat; conditions: for Randall-Selitto (g), individual animal: NB.HCl 3 mg/kg; for Randall-Selitto (g), individual animal / Randall-Selitto (g), Mean: NB-33.HCl 3.9 mg/kg; for Randall-Selitto (g), Mean: mean of 5, NB.HCl 3 mg/kg
Excerpt: FIG. 13 illustrate in the graphical form the results for 1310 NB-33, marked 1310, in comparison to the base NB compound NB, marked 1320 in FIG. 13.

[4] = Stability in human plasma; conditions: 37° C., acceptance criteria: NLT than 20% of hydrolysis after 4 hrs
[5] = Stability in the simulated gastro-intestinal fluid (sGIF); conditions: 0.5% pepsine in 0.1N aqueous HCl, 37° C.; acceptance: NLT 80% of the derivative still intact after 4 hrs
[6] = system: healthy volunteers; test: Double-blind trial, miosis after oral capsule; assay type: in vivo, human; conditions: for % MPE (miosis): oral, individual data, 33 45 mg, NB 35 mg, 39 68 mg; for effect on pupil dilation (miosis) in humans, in words: oral administration
Description: Double-blind, NB hydrochloride and NB-39 controlled, trial of the antinociceptive effect of oral NB-33 in healthy volunteers. Each of the three healthy volunteers was assigned a set of 6 non-transparent gelatin capsules as follows: 2×NB hydrochloride (MW=393.4; 39 mg), 2×NB-33 (MW=451.6; 45 mg) and 2×NB-39 (MW=680.0; 68 mg). Each week a healthy volunteer would receive a pill from the assigned set in a random fashion and take it orally. At T=0 hr, 0.25 hr, 0.5 hr, 1 hr, 1.5 hr, 2 hr, 3 hr and 5 hr followed oral administration a heat pain threshold was measured (hot water at 50° C.) as well as miosis.
as §1, §2

[7] = system: Human recombinant opiate receptor (mu, kappa or delta); test: Human recombinant opiate receptor panel, overall profile in words; assay type: cell-based; conditions: CHO-K1 cells, cAMP
Description: (§3) Human recombinant opiate receptor (mu, kappa or delta) expressed in CHO-K1 cells were used. Test compound (NB-33)/or vehicle was incubated with the cells (4×10E5/mL) in modified HBSS pH 7.4 buffer at […] for 30 min. The reaction was evaluated for cAMP levels by TR-FRET. Compounds were screened at 0.3, 1 and 3 uM. by Eurofins Pharma Discovery Services.
as §3, with “(NX-90)/or” for “(NB-33)/or”, “levels (cAMP and/or calcium flux)” for “levels”, “0.1, 0.3 and” for “0.3,”, “uM” for “and 3 uM.”

| SMILES | analgesia in rats, in words [1] | Analgesia (rat) [1] | % MPE (analgesia) ([2]; 0 hr (baseline)) | % MPE (analgesia) ([2]; 0.25 hr) | % MPE (analgesia) ([2]; 0.5 hr) | % MPE (analgesia) ([2]; 1 hr) | % MPE (analgesia) ([2]; 1.5 hr) | % MPE (analgesia) ([2]; 2 hr) | % MPE (analgesia) ([2]; 2.5 hr) | % MPE (analgesia) ([2]; 3 hr) | % MPE (analgesia) ([2]; 5 hr) | analgesia in humans, in words [2] | Stable in plasma [4] | Stable in sGIF [5] | % MPE (miosis) ([6]; 0 hr (baseline)) | % MPE (miosis) ([6]; 0.25 hr) | % MPE (miosis) ([6]; 0.5 hr) | % MPE (miosis) ([6]; 1 hr) | % MPE (miosis) ([6]; 1.5 hr) | % MPE (miosis) ([6]; 2 hr) | other results |
| --- | --- | --- | --- | --- | --- | --- | --- | --- | --- | --- | --- | --- | --- | --- | --- | --- | --- | --- | --- | --- | --- |
| C/C=C/C=C/C(=O)Oc1ccc2c3c1OC1C(O)CCC4(O)C(C2)N(CC2CCC2)CCC314 (stereo not drawn) [NB-33, 3-(cyclobutylmethyl)-4a,7-dihydroxy-2,3,4,4a,5,6,7,7a-octahydro-1H-4,12-methanobenzofuro[3,2-e]isoquinolin-9-yl (2E,4E)-hexa-2,4-dienoate] | excellent and superior results; also recorded: better analgesia than the parent opioid | Excellent | 0.0 % MPE | 0.0 % MPE (2×) and 8.3 % MPE and 3.7 % MPE and 31.3 % MPE and 30.0 % MPE | 19.2 % MPE and 24.0 % MPE and 66.7 % MPE and 48.1 % MPE and 37.5 % MPE (2×) | 100.0 % MPE and 80.0 % MPE and 183.3 % MPE and 59.3 % MPE and 50.0 % MPE and 67.5 % MPE | 115.4 % MPE and 140.0 % MPE and 87.5 % MPE and 114.8 % MPE and 68.8 % MPE and 97.5 % MPE | 111.5 % MPE and 124.0 % MPE and 191.7 % MPE and 185.2 % MPE and 81.3 % MPE and 157.5 % MPE | 119.2 % MPE and 96.0 % MPE and 112.5 % MPE (2×) and 133.3 % MPE and 31.3 % MPE | 157.7 % MPE and 60.0 % MPE and 45.8 % MPE and 118.5 % MPE and 25.0 % MPE and 27.5 % MPE | 115.4 % MPE and 24.0 % MPE and 20.8 % MPE and 44.4 % MPE and 18.8 % MPE and 22.5 % MPE | superior | No | Yes | 0.0 % MPE | 26.7 % MPE and −8.8 % MPE and 0.3 % MPE and 20.0 % MPE and 0.0 % MPE and −5.0 % MPE | 26.7 % MPE (3×) and 3.4 % MPE and 33.3 % MPE and −6.3 % MPE | 40.4 % MPE (2×) and 24.0 % MPE and 42.2 % MPE and 33.9 % MPE and 26.7 % MPE | 46.2 % MPE and 20.6 % MPE and 36.5 % MPE (2×) and 42.2 % MPE and 33.9 % MPE | 55.9 % MPE and 37.8 % MPE and 46.2 % MPE (2×) and 42.2 % MPE and 42.9 % MPE | analgesic properties vs equimolar dose of the parent opioid NB, in words (Graph 1, FIG. 13) ([3]; Randall-Selitto, rats): superior analgesic properties; % MPE (miosis) ([6]; 2.5 hr): 65.7 % MPE and 46.4 % MPE and 63.7 % MPE and 29.5 % MPE and 33.9 % MPE and 46.2 % MPE; % MPE (miosis) ([6]; 3 hr): 29.0 % MPE and 3.4 % MPE and 36.5 % MPE (2×) and 15.6 % MPE and 25.0 % MPE; % MPE (miosis) ([6]; 5 hr): 32.1 % MPE and 3.4 % MPE and 36.5 % MPE and 9.3 % MPE and 17.2 % MPE and 33.7 % MPE; effect on pupil dilation (miosis) in humans, in words [6]: superior; also recorded: significant effect; pharmacological profile at opiate receptors, in words [7]: not a pharmacologically inert compound |
| CCCCCCCCCCCCCCCCCCCCCC(=O)Oc1ccc2c3c1OC1C(O)CCC4(O)C(C2)N(CC2CCC2)CCC314 (stereo not drawn) [NB-39, 3-(cyclobutylmethyl)-4a,7-dihydroxy-2,3,4,4a,5,6,7,7a-octahydro-1H-4,12-methanobenzofuro[3,2-e]isoquinolin-9-yl docosanoate] | inferior | Inactive | 0.0 % MPE | 0.0 % MPE (2×) and 17.6 % MPE and 13.3 % MPE and 6.2 % MPE and 8.3 % MPE | 10.0 % MPE and 11.8 % MPE and 40.0 % MPE and 6.2 % MPE and 55.6 % MPE and 15.0 % MPE | 10.0 % MPE and 5.9 % MPE and 73.3 % MPE and 10.8 % MPE and 11.1 % MPE and 5.0 % MPE | 15.0 % MPE and 11.8 % MPE and 93.3 % MPE and −7.7 % MPE and 19.4 % MPE and 5.0 % MPE | 10.0 % MPE and 23.5 % MPE and 93.3 % MPE and 33.8 % MPE and 0.0 % MPE (2×) | 5.0 % MPE (2×) and 0.0 % MPE and 46.7 % MPE and −6.2 % MPE and 16.7 % MPE | 10.0 % MPE and 11.8 % MPE and 40.0 % MPE and 9.2 % MPE and 0.0 % MPE (2×) | 0.0 % MPE (2×) and 6.7 % MPE and −9.2 % MPE and −2.8 % MPE and 5.0 % MPE | inferior | No | Yes | 0.0 % MPE | 10.3 % MPE and 0.0 % MPE and 25.0 % MPE and 12.5 % MPE and 20.0 % MPE and 3.1 % MPE | 14.9 % MPE and 0.0 % MPE and 16.7 % MPE and 9.4 % MPE (2×) and 26.7 % MPE | 37.9 % MPE and 6.7 % MPE and 22.2 % MPE and 18.8 % MPE and 36.7 % MPE and 21.9 % MPE | 37.9 % MPE and 6.7 % MPE and 33.3 % MPE and 21.9 % MPE and 23.3 % MPE and 25.0 % MPE | 14.9 % MPE and 0.0 % MPE and 25.0 % MPE and 17.2 % MPE and 16.7 % MPE and 6.2 % MPE | % MPE (miosis) ([6]; 2.5 hr): 14.9 % MPE and 6.7 % MPE and 11.1 % MPE and 6.2 % MPE and 13.3 % MPE and 9.4 % MPE; % MPE (miosis) ([6]; 3 hr): 24.1 % MPE and 0.0 % MPE (3×) and 11.1 % MPE and 3.3 % MPE; % MPE (miosis) ([6]; 5 hr): 3.4 % MPE and 0.0 % MPE (2×) and 11.1 % MPE and 13.3 % MPE and 3.1 % MPE; effect on pupil dilation (miosis) in humans, in words [6]: did not significantly affect |
| C/C=C/C=C/C(=O)Oc1ccc2c3c1OC1C(O)CCC4(O)C(C2)N(CC2CCC2)CCC314.Cl (stereo not drawn) [NB-56, 3-(cyclobutylmethyl)-9-(((2E,4E)-hexa-2,4-dienoyl)oxy)-4a,7-dihydroxy-2,3,4,4a,5,6,7,7a-octahydro-1H-4,12-methanobenzofuro[3,2-e]isoquinolin-3-ium chloride] |  | No |  |  |  |  |  |  |  |  |  |  | No | Yes |  |  |  |  |  |  | Randall-Selitto (g), individual animal ([3]; Post-dose 0.5 hr): 121 g and 120 g and 207 g and 161 g and 96 g; Randall-Selitto (g), Mean ([3]; Post-dose 0.5 hr): 141.0* g; Randall-Selitto (g), individual animal ([3]; Post-dose 1 hr): 98 g and 103 g and 199 g and 73 g and 86 g; Randall-Selitto (g), Mean ([3]; Post-dose 1 hr): 111.8 g; Randall-Selitto (g), individual animal ([3]; Post-dose 2 hr): 99 g and 94 g and 214 g and 102 g and 85 g; Randall-Selitto (g), Mean ([3]; Post-dose 2 hr): 118.8 g; Randall-Selitto (g), individual animal ([3]; Post-dose 4 hr): 83 g and 71 g and 136 g and 63 g and 97 g; Randall-Selitto (g), Mean ([3]; Post-dose 4 hr): 90.0 g; Randall-Selitto (g), individual animal ([3]; Post-dose 6 hr): 79 g and 64 g and 101 g and 65 g and 85 g; Randall-Selitto (g), Mean ([3]; Post-dose 6 hr): 78.8 g; Randall-Selitto (g), individual animal ([3]; Pre-treatment (baseline)): 93 g and 82 g and 98 g and 80 g and 96 g; Randall-Selitto (g), Mean ([3]; Pre-treatment (baseline)): 89.8 g |
| C=CCN1CCC23c4c5ccc(OC(=O)/C=C/C=C/C)c4OC2C(=O)CCC3(O)C1C5 (stereo not drawn) [NX-90, 3-allyl-4a-hydroxy-7-oxo-2,3,4,4a,5,6,7,7a-octahydro-1H-4,12-methanobenzofuro[3,2-e]isoquinolin-9-yl (2E,4E)-hexa-2,4-dienoate] |  |  |  |  |  |  |  |  |  |  |  |  |  |  |  |  |  |  |  |  | pharmacological profile at opiate receptors, in words [7]: not a pharmacologically inert compound |
